How the values were obtained:
E. coli CCUG41421 = assay: E-test MIC with or without NAB7061 (4 μg/ml), Mueller-Hinton agar; assay type: cell-based, Escherichia coli
Summary of the method: (§1)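 Strips carrying an antibiotic concentration gradient were placed on inoculated plates following the supplier's directions, and the MIC was then recorded.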

E. coli IH3080 [1] = assay: as above; assay type: cell-based, Escherichia coli
Summary of the method: as §1

E. coli CCUG41422 = assay: as above; assay type: cell-based, Escherichia coli
Summary of the method: as §1

E. coli CCUG41424 = assay: as above; assay type: cell-based, Escherichia coli
Summary of the method: as §1

E. coli NCTC13351 = assay: as above; assay type: cell-based, Escherichia coli
Summary of the method: as §1

E. coli CCUG41425 = assay: as above; assay type: cell-based, Escherichia coli
Summary of the method: as §1

Ac. baumannii ATCC19606 = assay: as above; assay type: cell-based, Acinetobacter baumannii; settings: Ac. baumannii ATCC19606
Procedure: (§2) MICs were determined by using E-strips (Biodisk Ltd., Solna, Sweden) according to the manufacturer's instructions.
(§3) The strains originated from ATCC (11 strains), CCUG (11 strains), and NCTC (The National Collection of Type Cultures, Colindale, U.K.; 2 strains). Eight strains (the F-strains) were purchased from Mobidiag Ltd., Helsinki, Finland.

Ac. baumannii F263 = assay: as above; assay type: cell-based, Acinetobacter baumannii; settings: Ac. baumannii F263
Procedure: as §2, §3

Ac. baumannii F264 = assay: as above; assay type: cell-based, Acinetobacter baumannii; settings: Ac. baumannii F264
Procedure: as §2, §3

S. marcescens ATCC8100 = assay: as above; assay type: cell-based, Serratia marcescens
Procedure: as §2, §3

E. cloacae F230 = assay: as above; assay type: cell-based, Enterobacter cloacae
Summary of the method: as §1

E. cloacae F232 = assay: as above; assay type: cell-based, Enterobacter cloacae
Summary of the method: as §1

E. cloacae CCUG52947 = assay: as above; assay type: cell-based, Enterobacter cloacae
Summary of the method: as §1

E. cloacae ATCC23355 = assay: as above; assay type: cell-based, Enterobacter cloacae
Summary of the method: as §1

C. freundii ATCC8090 = assay: as above; assay type: cell-based, Citrobacter freundii
Procedure: as §2, §3

P. mirabilis ATCC29906 = assay: as above; assay type: cell-based, Proteus mirabilis
Procedure: as §2, §3

[2] = test system: both Acinetobacter strains (ATCC 19606 and F264); assay: E-test sensitization by NAB739, both strains; assay type: cell-based, Acinetobacter baumannii
E. coli IH3080 [3] = assay: Sensitization to rifampin: growth inhibition around wells on LB plates containing rifampin; assay type: cell-based, Escherichia coli; settings: in the absence of the compounds tested
A. baumannii ATCC19606 = assay: E-test MIC of antibiotics on Mueller Hinton agar containing increasing concentrations of NAB739; assay type: cell-based, Acinetobacter baumannii
K. oxytoca CCUG51683 = assay: E-test MIC with or without NAB7061 (4 μg/ml), Mueller-Hinton agar; assay type: cell-based, Klebsiella oxytoca
Procedure: as §2, §3

K. oxytoca ATCC13182 = assay: as above; assay type: cell-based, Klebsiella oxytoca
Procedure: as §2, §3

CO[C@H]1/C=C/O[C@@]2(C)Oc3c(C)c(O)c4c(O)c(c(/C=N/N5CCN(C)CC5)c(O)c4c3C2=O)NC(=O)/C(C)=C\C=C\[C@H](C)[C@H](O)[C@@H](C)[C@@H](O)[C@@H](C)[C@H](OC(C)=O)[C@@H]1C [Rifampin]
MIC of antibiotic in the presence of 4 μg/ml of NAB 7061 (E. coli CCUG41421): 0.032 to 0.064 µg/mL
MIC of antibiotic in the presence of 4 μg/ml of NAB 7061 (E. coli IH3080 [1]): 0.023 to 0.047 µg/mL
Sensitization factor to antibiotic (MIC without / with 4 μg/ml of NAB 7061) (E. coli IH3080 [1]): 170-350
Sensitization factor to antibiotic (MIC without / with 4 μg/ml of NAB 7061) (E. coli CCUG41422): 170-256
MIC of antibiotic in the presence of 4 μg/ml of NAB 7061 (E. coli CCUG41424): 0.064 to 0.094 µg/mL
Sensitization factor to antibiotic (MIC without / with 4 μg/ml of NAB 7061) (E. coli CCUG41424): 85-94
MIC of antibiotic in the presence of 4 μg/ml of NAB 7061 (E. coli NCTC13351): 0.032 to 0.047 µg/mL
Sensitization factor to antibiotic (MIC without / with 4 μg/ml of NAB 7061) (E. coli NCTC13351): 340-500
MIC of antibiotic in the presence of 4 μg/ml of NAB 7061 (E. coli CCUG41425): 0.016 to 0.023 µg/mL
Sensitization factor to antibiotic (MIC without / with 4 μg/ml of NAB 7061) (E. coli CCUG41425): 200-260
Sensitization factor to antibiotic (MIC without / with 4 μg/ml of NAB 7061) (Ac. baumannii ATCC19606): 24-32
MIC of antibiotic in the presence of 4 μg/ml of NAB 7061 (Ac. baumannii F263): 0.032 to 0.19 µg/mL
Sensitization factor to antibiotic (MIC without / with 4 μg/ml of NAB 7061) (Ac. baumannii F264): 32
MIC of antibiotic in the presence of 4 μg/ml of NAB 7061 (S. marcescens ATCC8100): 16 µg/mL
Sensitization factor to antibiotic (MIC without / with 4 μg/ml of NAB 7061) (S. marcescens ATCC8100): <2
MIC of antibiotic in the presence of 4 μg/ml of NAB 7061 (E. cloacae F230): 0.016 to 0.032 µg/mL
Sensitization factor to antibiotic (MIC without / with 4 μg/ml of NAB 7061) (E. cloacae F230): 1500
MIC of antibiotic in the presence of 4 μg/ml of NAB 7061 (E. cloacae F232): 0.023 µg/mL
Sensitization factor to antibiotic (MIC without / with 4 μg/ml of NAB 7061) (E. cloacae F232): 1400
MIC of antibiotic in the presence of 4 μg/ml of NAB 7061 (E. cloacae CCUG52947): 0.032 to 0.047 µg/mL
Sensitization factor to antibiotic (MIC without / with 4 μg/ml of NAB 7061) (E. cloacae CCUG52947): 500-1000
MIC of antibiotic in the presence of 4 μg/ml of NAB 7061 (E. cloacae ATCC23355): 8 to 16 ng/mL
Sensitization factor to antibiotic (MIC without / with 4 μg/ml of NAB 7061) (E. cloacae ATCC23355): 750-1500
MIC of antibiotic in the presence of 4 μg/ml of NAB 7061 (C. freundii ATCC8090): 0.023 to 0.032 µg/mL
Sensitization factor to antibiotic (MIC without / with 4 μg/ml of NAB 7061) (C. freundii ATCC8090): 500-1000
MIC of antibiotic in the presence of 4 μg/ml of NAB 7061 (P. mirabilis ATCC29906): 1 to 6 µg/mL
Sensitization factor to antibiotic (MIC without / with 4 μg/ml of NAB 7061) (P. mirabilis ATCC29906): <2
sensitization factors to antibiotic at NAB739 0.5 μg/ml [2]: 85-128
concentration of rifampin needed for the inhibitory effect (E. coli IH3080 [3]): 10 µg/mL
MIC of antibiotic in the presence of NAB739 (A. baumannii ATCC19606; NAB 739 0 μg/ml): 4 µg/mL
MIC of antibiotic in the presence of NAB739 (A. baumannii ATCC19606; NAB 739 0.5 μg/ml): 0.047 µg/mL
MIC of antibiotic in the presence of NAB739 (A. baumannii ATCC19606; NAB 739 1 μg/ml): 0.006 µg/mL
MIC of antibiotic in the presence of 4 μg/ml of NAB 7061 (K. oxytoca CCUG51683): 0.012 to 0.023 µg/mL
Sensitization factor to antibiotic (MIC without / with 4 μg/ml of NAB 7061) (K. oxytoca CCUG51683): 700-2000
MIC of antibiotic in the presence of 4 μg/ml of NAB 7061 (K. oxytoca ATCC13182): 0.032 to 0.047 µg/mL
Sensitization factor to antibiotic (MIC without / with 4 μg/ml of NAB 7061) (K. oxytoca ATCC13182): 680-750
